From patent publication US20230416199A1, “INHIBITORS OF AMINO ACID TRANSPORT” (ICAHN SCHOOL OF MEDICINE AT MOUNT SINAI, priority 2020, published 2023)
Like-named read-outs stand apart in the source and are kept apart here.

How the values were obtained:
Format in all cases: cell-based
rASCT2 [1] = target: T1, rASCT2 (Rattus norvegicus, UniProt D3ZJ25); assay: Competition experiment with alanine, rASCT2; details: second entry of the cell; for Ki: read-out: Competition Expt (h/rASCT2 Ki): rASCT2 Ki
T1 construct: expressed in transfected cells; host or cells: HEK293 (ATCC CRL-11268), transient transfection
T1 sequence (D3ZJ25 1-555): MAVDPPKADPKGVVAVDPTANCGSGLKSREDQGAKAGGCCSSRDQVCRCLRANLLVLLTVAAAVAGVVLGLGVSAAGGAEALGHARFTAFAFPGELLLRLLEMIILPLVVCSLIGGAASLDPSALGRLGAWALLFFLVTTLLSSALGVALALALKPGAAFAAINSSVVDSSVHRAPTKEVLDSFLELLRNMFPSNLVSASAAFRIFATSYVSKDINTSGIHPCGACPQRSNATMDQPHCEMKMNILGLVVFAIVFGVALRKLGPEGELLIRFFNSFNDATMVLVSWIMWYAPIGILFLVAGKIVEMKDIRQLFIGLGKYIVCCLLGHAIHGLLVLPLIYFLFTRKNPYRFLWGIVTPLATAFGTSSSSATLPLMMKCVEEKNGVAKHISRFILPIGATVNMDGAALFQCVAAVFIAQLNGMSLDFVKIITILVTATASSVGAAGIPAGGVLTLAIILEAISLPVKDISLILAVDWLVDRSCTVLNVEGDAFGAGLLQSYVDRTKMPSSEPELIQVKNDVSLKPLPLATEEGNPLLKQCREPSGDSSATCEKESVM

rASCT2 [2] = target: T1, rASCT2; assay: Electrophysiology (whole-cell current recording) of transfected HEK293 cells, rASCT2
Protocol: (§1) Human embryonic kidney 293 (HEK293, ATCC CRL-11268) cells were cultured in DMEM media supplemented with 10% (v v) fetal bovine serum (FBS), 2 mM glutamine, 1% penicillin streptomycin solution, 1 mM sodium pyruvate and non-essential amino acids. Cells were maintained at 37° C. in a fully humidified atmosphere containing 5% CO2. rASCT2, hASCT2, hASCT1, EAAT1, EAAT2, EAAC1, EAAT5 and YFP complementary DNAs were each used to transiently transfect HEK293 using POLYPLUS Jet-prime transfection reagent. Cells were analyzed using electrophysiological techniques 24-40 hours after transfection.
(§2) Stock solutions of inhibitor was prepared in dimethyl sulfoxide (DMSO) up to 100 mM. Dilutions to working concentrations were made using external buffer. […] For rASCT2, hASCT2 and hASCT1, external buffer contained 140 mM NaCl, 2 mM MgCl2, 2 mM CaCl2), and 10 mM HEPES, pH 7.40 while internal pipette solution comprised of 130 mM NaSCN, 2 mM MgCl2, 10 mM EGTA, 10 mM HEPES and 10 mM alanine, pH 7.40. For specificity experiments with EAAT1, EAAT2, EAAC1 and EAAT5, internal solution contained 10 mM glutamate instead of alanine. Compounds were applied to HEK293 cells expressing DNA of interest suspended from a current recording electrode in whole cell configuration through a rapid solution exchange device. Cells are immersed in external buffer bath used to dissolve the inhibitors. The open pipette resistance was between 3 and 6 MΩ. Series resistance was not compensated in these experiments due to relatively small currents. Currents traces were recorded using an Adams and List EPC7 amplifier and digitized using a Molecular Devices Digidata A/D converter.
(§3) Linear and nonlinear curve fitting of the experimental data were analyzed using MicroCal Origin software. Nonlinear dose-response relationships were fitted with a Michaelis-Menten-like equation to obtain apparent Ki values in the absence of substrate (see TABLE 2 for Ki values). The figures show representative current traces and dose-response curves for hACST2 and rASCT2, used to obtain Ki values in TABLE 2 for compound SN 40. At least four experiments were performed with at least three different cells. Error bars in all graphs, e.g., in FIG. 1B and FIG. 1C and tables (Ki values) represent mean±SD.

hASCT2 [3] = target: T2, hASCT2 (Homo sapiens, UniProt Q15758); assay: Electrophysiology (whole-cell current recording) of transfected HEK293 cells, hASCT2
T2 construct: expressed in transfected cells; host or cells: HEK293 (ATCC CRL-11268), transient transfection
T2 sequence (Q15758 1-541): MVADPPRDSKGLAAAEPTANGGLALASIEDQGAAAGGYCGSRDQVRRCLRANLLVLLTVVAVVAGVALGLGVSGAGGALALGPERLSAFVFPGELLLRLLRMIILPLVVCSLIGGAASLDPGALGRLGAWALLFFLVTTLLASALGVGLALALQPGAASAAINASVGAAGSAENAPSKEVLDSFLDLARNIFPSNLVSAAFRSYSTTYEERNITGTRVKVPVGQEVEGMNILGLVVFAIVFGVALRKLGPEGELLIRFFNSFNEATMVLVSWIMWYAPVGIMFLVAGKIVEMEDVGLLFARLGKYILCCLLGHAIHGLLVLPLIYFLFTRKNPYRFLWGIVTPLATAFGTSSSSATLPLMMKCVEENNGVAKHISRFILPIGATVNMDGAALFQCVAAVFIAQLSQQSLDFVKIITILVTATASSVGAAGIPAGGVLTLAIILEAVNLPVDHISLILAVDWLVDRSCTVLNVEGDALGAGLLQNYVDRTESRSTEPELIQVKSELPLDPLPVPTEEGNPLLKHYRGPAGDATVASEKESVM
Protocol: as §1, §2, §3

hASCT1 = target: T3, hASCT1 (Homo sapiens, UniProt P43007); assay: Electrophysiology (whole-cell current recording) of transfected HEK293 cells, hASCT1
T3 construct: expressed in transfected cells; host or cells: HEK293 (ATCC CRL-11268), transient transfection
T3 sequence (P43007 1-532): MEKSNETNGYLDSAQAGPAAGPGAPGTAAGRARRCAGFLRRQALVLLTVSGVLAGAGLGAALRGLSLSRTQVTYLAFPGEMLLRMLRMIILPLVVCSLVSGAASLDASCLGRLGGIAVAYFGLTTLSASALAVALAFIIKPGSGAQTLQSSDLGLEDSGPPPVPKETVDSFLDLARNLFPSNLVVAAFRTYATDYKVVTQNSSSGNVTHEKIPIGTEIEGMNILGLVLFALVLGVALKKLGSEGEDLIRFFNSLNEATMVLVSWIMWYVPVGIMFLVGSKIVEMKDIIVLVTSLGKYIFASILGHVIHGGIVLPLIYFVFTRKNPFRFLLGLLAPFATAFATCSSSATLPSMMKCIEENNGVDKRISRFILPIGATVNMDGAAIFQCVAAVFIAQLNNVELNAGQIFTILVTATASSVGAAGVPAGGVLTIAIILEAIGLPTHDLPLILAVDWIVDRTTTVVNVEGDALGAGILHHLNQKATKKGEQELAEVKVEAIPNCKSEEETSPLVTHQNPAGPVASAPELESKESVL
Protocol: as §1, §2, §3

hASCT2 [4] = target: T2, hASCT2; assay: Competition experiment with alanine, hASCT2; details: first entry of the cell; for Ki: read-out: Competition Expt (h/rASCT2 Ki): hASCT2 Ki
EAAT5 = target: T4, EAAT5 (Homo sapiens, UniProt O00341); assay: Electrophysiology specificity experiment in transfected HEK293 cells, EAAT5; details: apparent Ki, HEK293, internal solution 10 mM glutamate, mean ± SD
T4 construct: expressed in transfected cells; host or cells: HEK293 (ATCC CRL-11268), transient transfection
Protocol: as §1, §2, §3

EAAT1 = target: T5, EAAT1 (Homo sapiens, UniProt P43003); assay: Electrophysiology specificity experiment in transfected HEK293 cells, EAAT1; details: apparent Ki, HEK293, internal solution 10 mM glutamate, mean ± SD
T5 construct: expressed in transfected cells; host or cells: HEK293 (ATCC CRL-11268), transient transfection
Protocol: as §1, §2, §3

EAAT2 = target: T6, EAAT2 (Homo sapiens, UniProt P43004); assay: Electrophysiology specificity experiment in transfected HEK293 cells, EAAT2; details: apparent Ki, HEK293, internal solution 10 mM glutamate, mean ± SD; read-out: Ki EAAT2
T6 construct: expressed in transfected cells; host or cells: HEK293 (ATCC CRL-11268), transient transfection
Protocol: as §1, §2, §3

[5] = Table 3, dihydroxyproline derivatives, read-out: Ki All DNA: rASCT2
[6] = Table 3, dihydroxyproline derivatives, read-out: Ki All DNA: hASCT2
[7] = Table 3, dihydroxyproline derivatives, read-out: Ki All DNA: hASCT1
[8] = apparent Ki in the absence of substrate, HEK293, mean ± SD, read-out: Ki rASCT2
[9] = apparent Ki in the absence of substrate, HEK293, mean ± SD, read-out: Ki hASCT2
[10] = apparent Ki in the absence of substrate, HEK293, mean ± SD, read-out: Ki hASCT1

T5 sequence (P43003 whole entry, species assumed): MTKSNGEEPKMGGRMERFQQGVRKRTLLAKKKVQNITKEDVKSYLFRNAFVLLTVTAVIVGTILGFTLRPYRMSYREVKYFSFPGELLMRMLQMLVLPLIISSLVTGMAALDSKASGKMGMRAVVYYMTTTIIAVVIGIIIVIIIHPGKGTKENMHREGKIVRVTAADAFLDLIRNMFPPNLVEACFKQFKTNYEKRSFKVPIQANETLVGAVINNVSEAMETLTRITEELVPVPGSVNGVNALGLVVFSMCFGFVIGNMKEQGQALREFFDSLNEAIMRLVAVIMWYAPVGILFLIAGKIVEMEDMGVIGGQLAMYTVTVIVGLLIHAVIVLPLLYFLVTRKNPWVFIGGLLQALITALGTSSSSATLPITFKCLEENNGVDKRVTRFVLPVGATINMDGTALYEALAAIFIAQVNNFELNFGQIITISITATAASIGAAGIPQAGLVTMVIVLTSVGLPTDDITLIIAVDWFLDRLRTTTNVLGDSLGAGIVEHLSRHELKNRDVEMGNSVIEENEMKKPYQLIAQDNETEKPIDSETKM
T4 sequence (O00341 whole entry, species assumed): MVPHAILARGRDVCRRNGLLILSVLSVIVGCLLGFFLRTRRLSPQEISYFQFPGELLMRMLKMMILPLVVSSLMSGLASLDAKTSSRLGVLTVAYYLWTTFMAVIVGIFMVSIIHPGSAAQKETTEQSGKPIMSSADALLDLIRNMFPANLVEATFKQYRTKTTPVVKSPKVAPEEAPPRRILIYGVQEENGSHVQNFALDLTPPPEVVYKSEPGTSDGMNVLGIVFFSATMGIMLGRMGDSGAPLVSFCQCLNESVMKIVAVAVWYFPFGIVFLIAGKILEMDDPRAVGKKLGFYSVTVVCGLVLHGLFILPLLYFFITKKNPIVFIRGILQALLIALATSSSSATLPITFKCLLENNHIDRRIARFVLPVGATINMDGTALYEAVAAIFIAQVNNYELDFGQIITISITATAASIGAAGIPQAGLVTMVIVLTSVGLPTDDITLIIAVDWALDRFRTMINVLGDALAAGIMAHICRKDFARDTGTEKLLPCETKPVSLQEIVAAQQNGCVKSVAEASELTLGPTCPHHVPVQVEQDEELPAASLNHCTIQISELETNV
T6 sequence (P43004 whole entry, species assumed): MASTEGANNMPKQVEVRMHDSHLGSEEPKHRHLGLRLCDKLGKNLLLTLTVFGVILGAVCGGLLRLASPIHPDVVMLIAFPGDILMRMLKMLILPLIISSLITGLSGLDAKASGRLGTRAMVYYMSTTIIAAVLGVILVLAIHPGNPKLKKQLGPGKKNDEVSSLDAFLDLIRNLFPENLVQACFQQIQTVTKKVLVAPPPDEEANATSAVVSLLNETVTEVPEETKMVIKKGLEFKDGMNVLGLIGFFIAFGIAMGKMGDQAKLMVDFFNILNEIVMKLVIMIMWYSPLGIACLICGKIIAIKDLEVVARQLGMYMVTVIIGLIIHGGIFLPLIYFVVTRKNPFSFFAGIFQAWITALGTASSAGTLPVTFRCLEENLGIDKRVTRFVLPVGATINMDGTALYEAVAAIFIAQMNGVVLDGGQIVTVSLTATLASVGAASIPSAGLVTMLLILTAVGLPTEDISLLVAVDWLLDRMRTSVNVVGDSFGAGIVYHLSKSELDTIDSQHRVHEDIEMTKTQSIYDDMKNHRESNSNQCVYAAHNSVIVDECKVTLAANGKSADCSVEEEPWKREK

Ki (rASCT2 [1]; 1 mM ala) [µM] | Ki (rASCT2 [2]; [5]) [µM] | Ki (hASCT2 [3]; [6]) [µM] | Ki (hASCT1; [7]) [µM] | Ki (hASCT2 [4]; 1 mM ala) [µM] | Ki (rASCT2 [2]; [8]) [µM] | Ki (hASCT2 [3]; [9]) [µM] | Ki (hASCT1; [10]) [µM] | Ki (EAAT5) [µM] | Ki (EAAT1) [µM] | SMILES | also measured
0.15 | 0.005 | 3.24 | 0.002 | 19.4 |  |  |  |  |  | O=C(OC[C@@]1(O)CN[C@H](C(=O)O)C1)c1ccc(-c2ccc(C(F)(F)F)cc2)cc1 [SN59] | Competition Expt % block (given as a decimal): rASCT2 (rASCT2 [1]; 1 mM ala): full; Competition Expt % block (given as a decimal): hASCT2 (hASCT2 [4]; 1 mM ala): full
49 | 27.6 | 15.5 |  | 28 |  |  |  |  |  | O=C(OC[C@]1(O)CN[C@H](C(=O)O)C1)c1ccc(-c2ccc(F)cc2)cc1 [SN66] | 

Continued, compound first:

SMILES | Ki (rASCT2 [1]; 1 mM ala) [µM] | Ki (rASCT2 [2]; [5]) [µM] | Ki (hASCT2 [3]; [6]) [µM] | Ki (hASCT1; [7]) [µM] | Ki (hASCT2 [4]; 1 mM ala) [µM] | Ki (rASCT2 [2]; [8]) [µM] | Ki (hASCT2 [3]; [9]) [µM] | Ki (hASCT1; [10]) [µM] | Ki (EAAT5) [µM] | Ki (EAAT1) [µM] | also measured
O=C(Nc1cccc(C(=O)O[C@@H]2CN[C@H](C(=O)O)C2)c1)c1ccccc1 [SN 16] |  |  |  |  |  | 0.11 ± 0.04 | 0.39 ± 0.1 | 10.1 ± 0.6 | 566 ± 188 | 49.4 ± 9.7 | 
O=C(OC[C@]1(O)CN[C@H](C(=O)O)C1)c1ccc(-c2ccccc2)cc1 [SN65] |  | 25.8 | 30.5 | 59.2 |  |  |  |  |  |  | Competition Expt % block (given as a decimal): rASCT2 (rASCT2 [1]; 0.5 mM ala, decimal fraction): 0.4; Ki (rASCT2 [1]; 0.5 mM ala): 170 µM; Competition Expt % block (given as a decimal): hASCT2 (hASCT2 [4]; 0.5 mM ala, decimal fraction): 0.8; Ki (hASCT2 [4]; 0.5 mM ala): 52.2 µM
O=C(O[C@@H]1CN[C@H](C(=O)O)C1)c1ccc(C(=O)c2ccccc2)cc1 [SN 12] |  |  |  |  |  | 6.66 ± 1.2 | 21.4 ± 3.2 | 6.86 ± 1.1 | 13.8 ± 2.7 | 21.2 ± 4.5 | Ki (EAAT2): 15.4 ± 4.9 µM
